Tests used:
[1] = Dissolution of the freeze-dried product on contact with a water surface; format: physicochemical; details: freeze-dried from c = 320 mg/mL
Description: In addition, no collapse or meltback could be detected when CLG was freeze-dried appropriately. CLG is, however, evidently metastable as a solid, i.e. amorphous.

citrated whole blood [2] = test: ROTEM NATEM assay, recalcification only (contact pathway activation)
Method: (§1) The influence of CLG on coagulation was determined using a ROTEM® device (TEM Innovations GmbH, Germany) and whole blood from healthy volunteers using either the EXTEM assay or the NATEM assay. Coagulation was therefore either initiated using the tissue factor based ex-tem® reagent (+recalcification) (TEM Innovations GmbH, Germany) or only by recalcification of the citrated whole blood sample. […]; ROTEM® reagent; TEM Innovations GmbH, Germany). Solutions of CLG were taken to show the influence of the substance independent of the dissolution behavior of the substance.
In addition the clotting properties were investigated when coagulation of whole blood (using 300µL of citrated whole blood) was not initiated using tissue factor but only contact pathway activation, i.e. the citrated whole blood was recalcified using either the star-tem@ reagent or a CLG solution. The measurement was performed according to the automated ROTEM® sequence. Normal values were taken from the "expected values" section of the "instructions for use" sheet provided together with the star-tem@ reagent. A comparison was carried out with the star-tem@ reagent and the CLG solution with a concentration of 396 mg/mL of example 2. […] Table 1: Measurement values of the data determined in Example 2

[3] = Hygroscopicity measurement by mass increase in a glove box at relative air humidity > 50%; format: physicochemical; details: 1.0g sample, 22.5°C to […], 96 hours, referring to the initial mass
Method: The hygroscopicity of compounds was measured by weighing (Mettler AT261 "Delta Range" balance) in the samples at the start of the experiment and at certain time points within a total period of 96 hours. The increase in mass (in %) was calculated for each sample as: (mt -mt0)/(mt0) × 100% [formula] • wherein mt is the mass of the sample at a certain time t and Mt0 is the mass of the sample at the start when placing it in the glove box.

citrated whole blood [4] = test: ROTEM ex-tem assay, recalcification with freeze-dried pellets; details: p = 0.05, n = 10
Method: The compatibility with coagulation measurement was determined using the ROTEM® device. The measurement was conducted according to the respective automated ROTEM® sequence. 300 µL citrated whole blood (obtained from healthy individuals) were used for each measurement. The pipetting of the respective liquid reagents was performed according to the sequence or was skipped for the solid reagents. […] Coagulation was initiated using the tissue factor based ex-tem® reagent.
The ex-tem® assay was selected because of the tissue factor coagulation activation and the resulting short clotting times (CT). Therefore it was possible to investigate whether the freeze-dried products containing a high amount of solid would dissolve rapidly enough to assure complete recalcification and clotting times within a normal range.

citrated whole blood [5] = test: ROTEM EXTEM assay, recalcification with CLG solutions, tissue factor activation; details: CLG solution 396 mg/mL, 4 µL in 300 µL citrated whole blood, extem reagent, student t test p = 0.05, n = 10
Method: as §1
In detail, 300 µL citrated whole blood were taken, mixed with 4 µL of the respective solution of CLG of each concentration or of the star-tem@ reagent, and 16 µL of a 0.9% (m/V) NaCl-solution in ultrapure water. Blood clotting was initiated using the tissue factor based extem® reagent. […] Therefore it is possible to recalcify standard citrated whole blood and restore its clotting ability by using CLG solutions. This is depicted in Figure 2, wherein the data of a ROTEM experiment using two differently concentrated solutions of CLG (320 mg/mL and 396 mg/mL) were used. […]

[6] = Glass transition temperature Tg by differential scanning calorimetry; format: physicochemical
Method: Hydranal® Coulomat AG Oven served as a reagent. About 10 mg of the substance was used for an expected residual moisture between 5 - 10%(m/m) and about 50 - 80 mg were used for an expected moisture content […]. […]
Primary drying was carried out at Tinlet = -30° C / 30mtorr for 15h followed by secondary drying at 40°C / 30mtorr for 6h with a heating rate between the two steps of 0.3 °C/min. The glass transition temperature as well as the residual moisture content were measured after freeze drying for the respective substance.

[7] = 300µL citrated whole blood, CLG solution 396 mg/mL or star-tem reagent, no tissue factor
[8] = freeze-dried CLG pellets, 4µmol equivalent
[9] = freeze-dried CLG pellets, lower amount of CLG

In the case of calcium lacto gluconate [CLG], the “dissolution of the freeze-dried product” value [1] is reported as “dissolved rapidly and completely after a few seconds”, the CFT (citrated whole blood [2]; [7]) is reported as 183.00 and the alpha (citrated whole blood [2]; [7]) is reported as 54.67 °. For the same substance, the “difference between clotting time” value (citrated whole blood [2]; CLG solution 396 mg/mL versus star-tem reagent) was “around 3%”, the A10 (citrated whole blood [2]; amplitude after 10 minutes, 300µL citrated whole blood, CLG solution 396 mg/mL or star-tem reagent, no tissue factor) was 42.33 and the MCF (citrated whole blood [2]; maximum clot firmness, 300µL citrated whole blood, CLG solution 396 mg/mL or star-tem reagent, no tissue factor) was 51.33. For the same substance, the mass increase [3] was less than 0.1%, the “CT values, difference to reference” value (citrated whole blood [4]; freeze-dried CLG pellets versus 20µL star-tem reagent, ex-tem activation) was “no significant (p = 0.05; n = 10) difference” and the “amplitudes after 10 minutes reaction time (A10), difference to reference” value (citrated whole blood [4]; [8]) was “Neither the clot formation times (CFT) nor the amplitudes after 10 minutes reaction time (A10) of the 4µmol equivalent did significantly (p = 0.05, n = 10) differ from the reference”. For the same substance, the “clot formation times (CFT), difference to reference” value (citrated whole blood [4]; [8]) was “Neither the clot formation times (CFT) nor the amplitudes after 10 minutes reaction time (A10) of the 4µmol equivalent did significantly (p = 0.05, n = 10) differ from the reference”, the “A10, difference to reference” value (citrated whole blood [4]; [9]) was “slight but significant (p = 0.05, n = 10) variations” and the “CFT, difference to reference” value (citrated whole blood [4]; [9]) was “slight but significant (p = 0.05, n = 10) variations”. For the same substance, the “clotting time (CT), difference to star-tem solution” value (citrated whole blood [5]) was “no significant (student t test; probability p = 0.05, n = 10) difference”, the glass transition ([6]; 1:1 (CL:CG) mixture, moisture content 5.71 % [m/m]) was roughly 87.20 °C and the glass transition ([6]; 2:1 (CL:CG) mixture, moisture content 6.52 % [m/m]) was “about 84.90 °C”. For the same substance, the Tg ([6]; CLG ratio 0, moisture content 0 %(m/m)) was 110.03 °C, the Tg ([6]; CLG ratio 0, moisture content 3.69 %(m/m)) was 79.16 °C and the Tg ([6]; CLG ratio 0, moisture content 9.86 %(m/m)) was 29.77 °C. For the same substance, the Tg ([6]; CLG ratio 0, moisture content 14.30 %(m/m)) was 14.26 °C, the Tg ([6]; CLG ratio 28.93, moisture content 0 %(m/m)) was 125.01 °C and the Tg ([6]; CLG ratio 28.93, moisture content 4.54 %(m/m)) was 92.14 °C. It also gave a Tg ([6]; CLG ratio 28.93, moisture content 5.71 %(m/m)) of 87.20 °C, a Tg ([6]; CLG ratio 28.93, moisture content 8.30 %(m/m)) of 61.35 °C and a Tg ([6]; CLG ratio 28.93, moisture content 9.91 %(m/m)) of 40.75 °C. It also gave a Tg ([6]; CLG ratio 50.44, moisture content 6.52 %(m/m)) of 84.9 °C, a Tg ([6]; CLG ratio 62.23, moisture content 0 %(m/m)) of 144.37 °C and a Tg ([6]; CLG ratio 62.23, moisture content 10.00 %(m/m)) of 58.91 °C. The Tg ([6]; CLG ratio 62.23, moisture content 10.37 %(m/m)) was 56.54 °C, the Tg ([6]; CLG ratio %(m(CL)/m(CLG)) = 100, moisture content 0 %(m/m) (annealed)) was 152.06 °C and the Tg ([6]; CLG ratio %(m(CL)/m(CLG)) = 100, moisture content 5.20 %(m/m)) was 112.86 °C. The Tg ([6]; CLG ratio %(m(CL)/m(CLG)) = 100, moisture content 10.15 %(m/m)) was 58.45 °C and the Tg ([6]; CLG ratio %(m(CL)/m(CLG)) = 100, moisture content […](m/m)) was 34.39 °C.
